Source: patent US9409884B2 (Rigel Pharmaceuticals, Inc., priority 2012, dated 2016)

Molecular target: AMPK
Test: AMPK activation, enzyme-linked immunosorbent assay
Assay type: biochemical
In short: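 AMPK activation by test compounds was measured by enzyme-linked immunosorbent assay.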

Row | Compound | EC50 (Table 12, compounds of Table 5) [nM] | EC50 (Table 13, compounds of Table 6) [nM]
1 | N#Cc1ccc(CN2CCC(NC(=O)c3cccc(OC4CCN(Cc5ccc(C#N)c(F)c5)CC4)c3)CC2)cc1 [Compound 5-120, 3-(1-(4-cyano-3-fluorobenzyl)piperidin-4-yloxy)-N-(1-(4-cyanobenzyl)piperidin-4-yl)benzamide] | < 1000 | 
2 | CC(C)Oc1ccc(CN2CCC(Oc3cccc(C(=O)NC4CCN(Cc5ccc(C#N)cc5)CC4)c3)CC2)cc1 [Compound 5-121, N-(1-(4-cyanobenzyl)piperidin-4-yl)-3-(1-(4-isopropoxybenzyl)piperidin-4-yloxy)benzamide] | < 1000 | 
3 | N#Cc1ccc(CN2CCC(NC(=O)c3cccc(OC4CCN(Cc5cnn(-c6ccc(F)cc6)c5)CC4)c3)CC2)cc1 [Compound 5-122, N-(1-(4-cyanobenzyl)piperidin-4-yl)-3-(1-((1-(4-fluorophenyl)-1H-pyrazol-4-yl)methyl)piperidin-4-yloxy)benzamide] | < 1000 | 
4 | N#Cc1ccc(CN2CCC(NC(=O)c3cccc(OC4CCN(Cc5ccc(OC(F)(F)F)cc5)CC4)c3)CC2)cc1 [Compound 5-123, N-(1-(4-cyanobenzyl)piperidin-4-yl)-3-(1-(4-(trifluoromethoxy)benzyl)piperidin-4-yloxy)benzamide] | > 100000 | 
5 | N#Cc1ccc(CN2CCC(NC(=O)c3cccc(OC4CCN(Cc5ccc(C#N)cc5)CC4)c3)CC2)cc1 [Compound 5-124, N-(1-(4-cyanobenzyl)piperidin-4-yl)-3-(1-(4-cyanobenzyl)piperidin-4-yloxy)benzamide] | < 1000 | 
6 | N#Cc1ccc(CN2CCC(NC(=O)c3cccc(OC4CCN(Cc5ccc(C(F)(F)F)cc5)CC4)c3)CC2)cc1 [Compound 5-125, N-(1-(4-cyanobenzyl)piperidin-4-yl)-3-(1-(4-(trifluoromethyl)benzyl)piperidin-4-yloxy)benzamide] | < 1000 | 
7 | N#Cc1ccc(CN2CCC(NC(=O)c3cccc(O[C@@H]4CCN(Cc5ccc(C(F)(F)F)cc5)C[C@H]4F)c3)CC2)cc1 [Compound 5-126, N-(1-(4-cyanobenzyl)piperidin-4-yl)-3-((3,4-trans)-3-fluoro-1-(4-(trifluoromethyl)benzyl)piperidin-4-yloxy)benzamide] | < 1000 | 
8 | CC(C)Oc1ccc(CN2CC[C@@H](Oc3cccc(C(=O)NC4CCN(Cc5ccc(C#N)cc5)CC4)c3)[C@H](F)C2)cc1 [Compound 5-127, N-(1-(4-cyanobenzyl)piperidin-4-yl)-3-((3,4-trans)-3-fluoro-1-(4-isopropoxybenzyl)piperidin-4-yloxy)benzamide] | < 1000 | 
9 | CS(=O)(=O)c1ccc(CN2CC[C@@H](Oc3cccc(C(=O)NC4CCN(Cc5ccc(C#N)cc5)CC4)c3)[C@H](F)C2)cc1 [Compound 5-128, N-(1-(4-cyanobenzyl)piperidin-4-yl)-3-((3,4-trans)-3-fluoro-1-(4-(methylsulfonyl)benzyl)piperidin-4-yloxy)benzamide] | < 1000 | 
10 | N#Cc1ccc(CN2CCC(NC(=O)c3cccc(O[C@@H]4CCN(Cc5ccc(C#N)c(F)c5)C[C@H]4F)c3)CC2)cc1 [Compound 5-129, 3-((3,4-trans)-1-(4-cyano-3-fluorobenzyl)-3-fluoropiperidin-4-yloxy)-N-(1-(4-cyanobenzyl)piperidin-4-yl)benzamide] | < 1000 | 
11 | CS(=O)(=O)c1ccc(CN2CCN(C(=O)c3ccc4cc(C(=O)NC5CCN(Cc6ccc(C#N)cc6)CC5)oc4c3)CC2)cc1 [Compound 6-2, N-(1-(4-cyanobenzyl)piperidin-4-yl)-6-(4-(4-(methylsulfonyl)benzyl)piperazine-1-carbonyl) benzofuran-2-carboxamide] |  | 100 to 1000
12 | COc1ccc(CN2CCC(NC(=O)c3cc4ccc(C(=O)N5CCN(Cc6ccc(S(C)(=O)=O)cc6)CC5)cc4o3)CC2)cc1 [Compound 6-3, N-(1-(4-methoxybenzyl)piperidin-4-yl)-6-(4-(4-(methylsulfonyl)benzyl)piperazine-1-carbonyl) benzofuran-2-carboxamide] |  | < 100
13 | CS(=O)(=O)c1ccc(CN2CCN(C(=O)c3ccc4cc(C(=O)NC5CCN(Cc6ccc(OC(F)(F)F)cc6)CC5)oc4c3)CC2)cc1 [Compound 6-4, 6-(4-(4-(methylsulfonyl)benzyl)piperazine-1-carbonyl)-N-(1-(4-(trifluoromethoxy)benzyl)piperidin-4-yl)benzofuran-2-carboxamide] |  | 100 to 1000
14 | COc1ccc(CN2CCC(NC(=O)c3cc4ccc(C(=O)N5CCN(Cc6ccc(S(C)(=O)=O)cc6)CC5)cc4o3)CC2)cc1F [Compound 6-5, N-(1-(3-fluoro-4-methoxybenzyl)piperidin-4-yl)-6-(4-(4-(methylsulfonyl)benzyl)piperazine-1-carbonyl) benzofuran-2-carboxamide] |  | < 100
15 | CC(=O)c1ccc(Oc2ccc(NC(=O)c3cc4ccc(C(=O)N5CCN(Cc6ccc(S(C)(=O)=O)cc6)CC5)cc4o3)cn2)cc1 [Compound 6-6, N-(6-(4-acetylphenoxy)pyridin-3-yl)-6-(4-(4-(methylsulfonyl)benzyl)piperazine-1-carbonyl) benzofuran-2-carboxamide] |  | < 100
16 | CS(=O)(=O)c1ccc(CN2CCN(C(=O)c3ccc4cc(C(=O)NC5CCN(Cc6ccc(OC(F)(F)C(F)F)cc6)CC5)oc4c3)CC2)cc1 [Compound 6-7, 6-(4-(4-(methylsulfonyl)benzyl)piperazine-1-carbonyl)-N-(1-(4-(1,1,2,2-tetrafluoroethoxy)benzyl)piperidin-4-yl)benzofuran-2-carboxamide] |  | < 100

Row | Compound | EC50 (Table 12, compounds of Table 5) [nM] | EC50 (Table 13, compounds of Table 6) [nM]
17 | CS(=O)(=O)c1ccc(CN2CCN(C(=O)c3ccc4cc(C(=O)Nc5ccc(Oc6ccc(C#N)cc6)nc5)oc4c3)CC2)cc1 [Compound 6-8, N-(6-(4-cyanophenoxy)pyridin-3-yl)-6-(4-(4-(methylsulfonyl)benzyl)piperazine-1-carbonyl) benzofuran-2-carboxamide] |  | < 100
18 | CS(=O)(=O)c1ccc(N2CCN(c3ccc4oc(C(=O)NC5CCN(Cc6ccc(C#N)cc6)CC5)cc4c3)CC2)cc1 [Compound 6-9, N-(1-(4-cyanobenzyl)piperidin-4-yl)-5-(4-(4-(methylsulfonyl)phenyl)piperazin-1-yl)benzofuran-2-carboxamide] |  | 100 to 1000
19 | CS(=O)(=O)c1ccc(CN2CCN(c3ccc4oc(C(=O)NC5CCN(Cc6ccc(C#N)cc6)CC5)cc4c3)CC2)cc1 [Compound 6-10, N-(1-(4-cyanobenzyl)piperidin-4-yl)-5-(4-(4-(methylsulfonyl)benzyl)piperazin-1-yl)benzofuran-2-carboxamide] |  | < 100
20 | N#Cc1ccc(CN2CCC(NC(=O)c3cc4cc(C(=O)N5CCN(Cc6ccc(F)cc6)CC5)ccc4o3)CC2)cc1 [Compound 6-11, N-(1-(4-cyanobenzyl)piperidin-4-yl)-5-(4-(4-fluorobenzyl)piperazine-1-carbonyl)benzofuran-2-carboxamide] |  | < 100
21 | O=C(Nc1ccc(Oc2ccccc2)cc1)c1cc2cc(C(=O)N3CCN(Cc4ccc(F)cc4)CC3)ccc2o1 [Compound 6-12, 5-(4-(4-fluorobenzyl)piperazine-l-carbonyl)-N-(4-phenoxyphenyl)benzofuran-2-carboxamide] |  | < 100
22 | N#Cc1ccc(CN2CCC(NC(=O)c3cc4cc(CN5CCN(Cc6ccc(F)cc6)CC5)ccc4o3)CC2)cc1 [Compound 6-13, N-(1-(4-cyanobenzyl)piperidin-4-yl)-5-((4-(4-fluorobenzyl)piperazin-1-yl)methyl)benzofuran-2-carboxamide] |  | < 100
23 | N#Cc1ccc(CN2CCC(NC(=O)c3cc4cc(CN5CCC(Oc6ccc(C#N)cc6)CC5)ccc4o3)CC2)cc1 [Compound 6-14, N-(1-(4-cyanobenzyl)piperidin-4-yl)-5-((4-(4-cyanophenoxy)piperidin-1-yl)methyl)benzofuran-2-carboxamide] |  | < 100
24 | O=C(NC1CCN(Cc2ccncc2)CC1)c1cc2cc(C(=O)N3CCC(C(=O)c4ccc(F)cc4)CC3)ccc2o1 [Compound 6-15, 5-(4-(4-fluorobenzoyl)piperidine-1-carbonyl)-N-(1-(pyridin-4-ylmethyl)piperidin-4-yl)benzofuran-2-carboxamide] |  | 100 to 1000
25 | N#Cc1ccc(CN2CCC(NC(=O)c3cc4cc(C(=O)N5CCC(C(=O)c6ccc(F)cc6)CC5)ccc4o3)CC2)cc1 [Compound 6-16, N-(1-(4-cyanobenzyl)piperidin-4-yl)-5-(4-(4-fluorobenzoyl)piperidine-1-carbonyl)benzofuran-2-carboxamide] |  | < 100
26 | N#Cc1ccc(Oc2ccc(NC(=O)c3cc4cc(C(=O)N5CCC(C(=O)c6ccc(F)cc6)CC5)ccc4o3)cn2)cc1 [Compound 6-17, N-(6-(4-cyanophenoxy)pyridin-3-yl)-5-(4-(4-fluorobenzoyl)piperidine-1-carbonyl)benzofuran-2-carboxamide] |  | < 100
27 | O=C(NC1CCN(Cc2ccncc2)CC1)c1cc2cc(C(=O)N3CCC(Oc4ccc(F)cc4)CC3)ccc2o1 [Compound 6-18, 5-(4-(4-fluorophcnoxy)piperidine-1-carbonyl)-N-(1-(pyridin-4-ylmethyl)piperidin-4-yl)benzofuran-2-carboxamide] |  | < 100
28 | N#Cc1ccc(CN2CCC(NC(=O)c3cc4cc(C(=O)N5CCC(Oc6ccc(F)cc6)CC5)ccc4o3)CC2)cc1 [Compound 6-19, N-(1-(4-cyanobenzyl)piperidin-4-yl)-5-(4-(4-fluorophenoxy)piperidine-1-carbonyl)benzofuran-2-carboxamide] |  | < 100
29 | COc1ccc(CN2CCC(NC(=O)c3cc4cc(NC(=O)C5CCN(c6ccc(C#N)cc6)CC5)ccc4o3)CC2)cc1 [Compound 6-21, 1-(4-cyanophenyl)-N-(2-(1-(4-methoxybenzyl)piperidin-4-ylcarbamoyl)benzofuran-5-yl)piperidine-4-carboxamide] |  | < 100
30 | N#Cc1ccc(N2CCC(C(=O)Nc3ccc4oc(C(=O)N5CCC(Oc6ccc(C(F)(F)F)cc6)CC5)cc4c3)CC2)cc1 [Compound 6-22, 1-(4-cyanophenyl)-N-(2-(4-(4-(trifluoromethyl)phenoxy)piperidine-1-carbonyl)benzofuran-5-yl)piperidine-4-carboxamide] |  | < 100
31 | COc1ccc(CN2CCC(NC(=O)c3cc4cc(NC(=O)c5ccc(Oc6ccc(F)cc6)cc5)ccc4o3)CC2)cc1 [Compound 6-23, 5-(4-(4-fluorophenoxy)benzamido)-N-(1-(4-methoxybenzyl)piperidin-4-yl)benzofuran-2-carboxamide] |  | 100 to 1000
